Experimental data: patent US11377444B2, “Pyridopyrimidine compounds acting as mTORC 1/2 dual inhibitors” (MEDSHINE DISCOVERY INC., priority 2017, dated 2022)
“And” between values parts separate entries of the source, which are not always exact repeats. Equal entries are not always repeated.

Columns and labels:
[1] = system: human breast cancer MCF-7 cell subcutaneous xenograft tumor; test: In vivo pharmacodynamic study, MCF-7 subcutaneous xenograft tumor; set-up: species or system BALB/c nude mouse; conditions: for Tumor volume (27th day): mean ± SEM; for Tumor volume (day 0): day 0, mean ± SEM
Source text: Experimental Embodiment 4: In Vivo Pharmacodynamic Study on BALB/c Nude Mouse Model of Human Breast Cancer MCF-7 Cell Subcutaneous Xenograft Tumor
Experimental objective: To study the efficacy of the test compounds on human breast cancer MCF-7 cell subcutaneous xenograft tumor in BALB/c nude mouse model.
Experimental animals: Female BALB/c nude mice, 6-8 weeks old, weighing 18-22 grams; supplier: Shanghai Xipuer-Bikai Experimental Animal Co., Ltd.
Human breast cancer MCF-7 cells (ECACC, article number: 86012803) were subjected to in vitro monolayer culture under the conditions of EMEM (EBSS)+2 mM […]+1% Non Essential Amino Acids (NEAA) medium containing 10% fetal bovine serum, 100 U/mL penicillin and 100 μg/mL streptomycin, and 37° C., 5% CO2incubator. Conventional digestion treatment was carried out with trypsin-EDTA twice a week for cell passage. When the cell saturation was 80%-90%, and the quantity reached the requirement, the cells were collected, counted and inoculated.
Estrogen tablets (0.18 mg) were inoculated into the left back of each mouse three days before cell inoculation, 0.2 mL (1×10^7) MCF-7 cells (added with matrigel, volume ratio of 1:1) were subcutaneously inoculated into the right back of each mouse. When the average volume of tumor reached 142 mm^3, the mice were divided into groups and began to be administrated.
The test compounds were prepared into clear solutions of 0.75 mg/mL, 1.5 mg/mL and 3 mg/mL. The vehicles were 5% DMSO+30% polyethylene glycol 300+65% water.
The experimental indexes were used for investigating whether the growth of the tumors had been inhibited, delayed or cured. The diameters of the tumors were measured with vernier calipers twice a week. The calculation formula of the tumor volume was: V=0.5a×b^2, wherein a and b represent the long and short diameters of the tumor respectively.
The antitumor efficacy of the compound was evaluated by TGI (%) or relative tumor proliferation rate T/C (%). TGI (%) reflects the inhibition rate of the tumor growth. Calculation of TGI (%): TGI (%)=[1−(average tumor volume at the end of administration in the treatment group−average tumor volume at the beginning of administration in the treatment group)/(average tumor volume at the end of treatment in the vehicle control group−average tumor volume at the beginning of treatment in the vehicle control group)]×[…].
Relative tumor proliferation rate T/C (%): The calculation formula was as follows: T/C %=TRTV/CRTV at the beginning of the treatment (TRTV: treatment group RTV; CRTV: negative control group RTV). The relative tumor volume (RTV) was calculated according to the results of tumor measurement. The calculation formula was RTV=Vt/V0, wherein V0 is the average tumor volume measured during administration of the groups (i.e. d0), and Vt is the average tumor volume during a certain measurement, the TRTV and CRTV were taken on the same day.
Statistical analysis included the mean and standard error (SEM) of tumor volume at each time point in each group. […] The comparison between two groups was analyzed by T-test, and the comparison between three or more groups was analyzed by one-way ANOVA.

N87 cell = test: Cell proliferation inhibitory activity (Cell-Titer-Glo), N87; type: cell-based; conditions: 72 h; 3 days incubation
Source text: Experimental Embodiment 2: Evaluation of Cell Proliferation Inhibitory Activity
Experiment objective: To detect cell proliferation inhibitory activity of the tested compounds.
Experimental principle: The luciferase in the Cell-Titer-Glo reagent produces oxyluciferin using luciferin, oxygen and ATP as reaction substrates, and releases energy in the form of light. Since the reaction of luciferase requires ATP, the total amount of light generated by the reaction is proportional to the total amount of ATP that reflects cell viability.
Cell lines: MCF-7 cell line […], HT-29 cell line (ATCC-HTB-38), OE21 (ECACC-96062201), NCI-N87 cell line (ATCC-CRL-5822)
Cell culture medium: (RPMI 1640 culture medium (Invitrogen #1868546; 10% serum Invitrogen #1804958; L-glutamine 1×, Invitrogen #1830863; dual antibiotic Hyclone #J170012))
Cell Titer-Glo® Luminescent Cell Viability Assay Kit (Promega #G7573)
The cells were inoculated in a 384- or 96-well plate with a density of 1000 cells per well and 25 μL per well according to the instructions of the cell inoculating plate. The edge wells were not inoculated with cells, and was supplemented with […].
(i) The mother solution of the compound was 10 mM, and diluted with DMSO to an initial concentration of 4 mM. The compound was added to the compound mother solution, 9 μL per well.
(ii) The compound was diluted with ECHO liquid-handling workstation. Each well of the cell plate was added with 125 nL compound. Each well of the cell wells in 2nd column and 23rd column was added with 125 nL DMSO, and each of the PBS wells in 1st column and 24th column was added with 125 nL DMSO.
(iii) Each well of the cell plate was supplemented with 25 μL culture medium, the final volume in each well of the cell plate was 50 μL, […] 3 times dilution, 10 concentrations, each concentration was duplicated in left and right wells, the final DMSO concentration was 0.25%.
2.3. After addition of the compound, centrifugation was performed at 1000 rpm for 1 min, and the cell plate was placed in a 37° C., 5% CO2 incubator for 3 days.
The cell plate was taken out from the incubator and equilibrated at room temperature for 30 minutes. 25 μL Cell-Titer-Glo reagent was added to each well, shaken for one minute to mix thoroughly, centrifuged at 1000 rpm for 1 minute. After 10 minutes, the plate was read on PerkinElmer Envision with a […] reading time was set at 0.2 second.

## CNC(=O)c1cccc(-c2ccc3c(N4CCOC[C@@H]4C)nc(N4CCOC[C@@H]4C)nc3n2)c1 [AZD2014, reference compound]
[1]; 7.5 mg/kg
  T/C: 53.95%
  TGI: 61.10%
  RTV (27th day): 2.25 ± 0.47
  Tumor volume (27th day): 315 ± 65 mm^3
  Tumor volume (day 0): 142 ± 9 mm^3
[1]; 15 mg/kg
  T/C: 20.36%
  TGI: 104% and 104.37%
  difference compared with the vehicle control group: significant difference
  RTV (27th day): 0.85 ± 0.26
  Tumor volume (27th day): 121 ± 41 mm^3
  Tumor volume (day 0): 141 ± 8 mm^3
N87 cell
  IC50: 59 nM

## CNC(=O)c1cccc(-c2ccc3c(N4CCOC[C@@H]4C)nc(N4CCOC5(CCC5)C4)nc3n2)c1 [Embodiment 23]
[1]; 7.5 mg/kg
  T/C: 83.52%
  TGI: 22.14%
  RTV (27th day): 3.48 ± 0.37
  Tumor volume (27th day): 489 ± 51 mm^3
  Tumor volume (day 0): 142 ± 9 mm^3
[1]; 15 mg/kg
  T/C: 54.13%
  TGI: 59.05%
  RTV (27th day): 2.26 ± 0.48
  Tumor volume (27th day): 324 ± 79 mm^3
  Tumor volume (day 0): 141 ± 9 mm^3
[1]; 30 mg/kg
  T/C: 25.50%
  TGI: 98.33%
  difference compared with the vehicle control group: significant difference
  RTV (27th day): 1.06 ± 0.17
  Tumor volume (27th day): 150 ± 26 mm^3
  Tumor volume (day 0): 141 ± 8 mm^3
[1]; 30 mg/kg, listed as embodiment 23
  TGI: 98%
N87 cell
  IC50: 94 nM

## C[C@H]1COCCN1c1nc(N2CCOC3(CC3)C2)nc2nc(-c3cccc(C(N)=O)c3)ccc12 [Embodiment 51]
[1]; 15 mg/kg
  T/C: 57.84%
  TGI: 59.27%
  RTV (27th day): 2.41 ± 0.36
  Tumor volume (27th day): 323 ± 25 mm^3
  Tumor volume (day 0): 142 ± 11 mm^3
N87 cell
  IC50: 59 nM
